This is an account of results in US20250011331A1 (Nimbus Saturn, Inc., priority 2021, published 2025).

T1 sequence (Q92918 whole entry): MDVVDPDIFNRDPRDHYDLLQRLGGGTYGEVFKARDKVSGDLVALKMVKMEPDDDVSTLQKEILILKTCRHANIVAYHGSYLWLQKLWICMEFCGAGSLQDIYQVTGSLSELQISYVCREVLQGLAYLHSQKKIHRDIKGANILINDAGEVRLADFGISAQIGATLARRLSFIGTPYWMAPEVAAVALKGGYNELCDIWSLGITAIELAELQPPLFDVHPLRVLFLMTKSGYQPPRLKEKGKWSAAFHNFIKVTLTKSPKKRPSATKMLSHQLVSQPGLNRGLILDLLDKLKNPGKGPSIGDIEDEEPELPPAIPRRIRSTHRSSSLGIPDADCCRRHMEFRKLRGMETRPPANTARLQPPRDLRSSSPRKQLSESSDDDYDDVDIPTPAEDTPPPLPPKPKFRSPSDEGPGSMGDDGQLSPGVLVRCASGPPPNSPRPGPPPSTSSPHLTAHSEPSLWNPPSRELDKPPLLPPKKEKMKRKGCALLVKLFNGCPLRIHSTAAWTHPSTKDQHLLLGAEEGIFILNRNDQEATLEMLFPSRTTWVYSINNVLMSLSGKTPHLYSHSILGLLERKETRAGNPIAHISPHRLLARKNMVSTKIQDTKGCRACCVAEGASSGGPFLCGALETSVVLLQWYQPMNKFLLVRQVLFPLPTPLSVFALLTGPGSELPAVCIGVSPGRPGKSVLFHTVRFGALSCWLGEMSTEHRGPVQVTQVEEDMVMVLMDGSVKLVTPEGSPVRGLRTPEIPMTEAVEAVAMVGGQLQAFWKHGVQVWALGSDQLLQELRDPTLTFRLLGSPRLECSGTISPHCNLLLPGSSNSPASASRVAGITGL

The assay addresses T1, HPK1 (Homo sapiens, UniProt Q92918).
T1 construct: purchased Invitrogen
The assay is described as follows: HPK1 biochemical enzyme assay (microfluidic mobility shift). The note with it: 1.5 nM HPK1 (Invitrogen), 1 mM ATP, 30 min preincubation, 60 min at RT, Caliper EZ Reader. Here is the method:
HPK1 biochemical enzyme assay: HPK1 enzyme inhibition was measured using a microfluidic mobility shift assay. Reactions were performed in a 384-well plate, containing 1.5 nM HPK1 (Invitrogen), in assay buffer (Cama Biosciences; pH 7.4). Test compounds were titrated in ten point curves (top final assay concentration 3 μM), and preincubated with enzyme/substrate mix for 30 min prior to initiation of the reaction by addition of ATP (1 mM final concentration) and substrate (1 μM final concentration; Carna Biosciences) diluted in assay buffer supplemented by MgCl2 (final assay concentration of 5 mM). Following 60 min incubation at RT, the reaction was terminated by addition of 60 μl/well termination buffer (Carna Biosciences) and signal determination using a Caliper EZ Reader (Perkin Elmer, UK).
One may read the IC50 as the concentration that inhibits the measured activity by half. Take `CN(C)Cc1nc(Nc2ccc(-c3cnc4cc(F)ccn34)c3c2C(=O)NC3)ccc1OC1CC2(COC2)C1` [Compound I-40, 7-((5-((2-oxaspiro[3.3]heptan-6-yl)oxy)-6-((dimethylamino)methyl)pyridin-2-yl)amino)-4-(7-fluoroimidazo[1,2-a]pyridin-3-yl)isoindolin-1-one]: the IC50 was at most 100 nM. To `CN(C)CCc1nc(Nc2cnc(-c3ccnc4c3ccn4C)c3c2C(=O)NC3)ccc1C1CCOCC1` [Compound I-13, 7-((6-(2-(dimethylamino)ethyl)-5-(tetrahydro-2H-pyran-4-yl)pyridin-2-yl)amino)-4-(1-methyl-1H-pyrrolo[2,3-b]pyridin-4-yl)-2,3-dihydro-1H-pyrrolo[3,4-c]pyridin-1-one] belongs at most 100 nM; to `CN(C)Cc1nc(Nc2ccc(-c3cnc4cc(F)ccn34)c3c2C(=O)NC3)ccc1[C@@H]1COCCO1` (single isomer, unassigned) [Compound I-15], at most 100 nM. The value for `CO[C@H]1CCN(Cc2nc(Nc3ccc(-c4cnc5cc(F)ccn45)c4c3C(=O)NC4)ccc2C2CCN(C)C(=O)C2)C1` (stereo partly drawn) [Compound I-43, 4-(7-fluoroimidazo[1,2-a]pyridin-3-yl)-7-[[6-[[(3S)-3-methoxypyrrolidin-1-yl]methyl]-5-(1-methyl-2-oxo-4-piperidyl)-2-pyridyl]amino]isoindolin-1-one] was at most 100 nM. To `CN(C)Cc1nc(Nc2ccc(-c3cnc4cc(F)ccn34)c3c2C(=O)NC3)ccc1[C@@H]1CC[C@H](O)C1` [Compound I-2, 7-((6-((dimethylamino)methyl)-5-((1R,3S)-3-hydroxycyclopentyl)pyridin-2-yl)amino)-4-(7-fluoroimidazo[1,2-a]pyridin-3-yl)isoindolin-1-one] belongs at most 100 nM; to `COC1CN(Cc2nc(Nc3ccc(-c4cnc5cnccn45)c4c3C(=O)NC4)ccc2C2CCOC2)C1` (stereo not drawn) [Compound I-42, 4-imidazo[1,2-a]pyrazin-3-yl-7-[[6-[(3-methoxyazetidin-1-yl)methyl]-5-tetrahydrofuran-3-yl-2-pyridyl]amino]isoindolin-1-one], at most 100 nM. As for `CN(C)Cc1nc(Nc2ccc(-c3cnc4cc(F)ccn34)c3c2C(=O)NC3)ccc1N1CCOC(C)(C)C1=O` [Compound I-23], the IC50 was at most 100 nM.

For `CN(C)Cc1cc(C2CCOC2)cc(Nc2ccc(-c3cnc4cc(F)ccn34)c3c2C(=O)NC3)n1` (single isomer, unassigned) [Compound I-45], the IC50 is at most 100 nM. The value for `C[C@H](OC1CCOCC1)c1ccc(Nc2ccc(-c3cnc4cc(F)ccn34)c3c2C(=O)NC3)nc1CN(C)C` (single isomer, unassigned) [Compound I-26] was at most 100 nM; that for `CN(C)Cc1nc(Nc2ccc(-c3cnc4cc(F)ccn34)c3c2C(=O)NC3)ccc1[C@H]1COCCO1` (single isomer, unassigned) [Compound I-14] was at most 100 nM. The value for `C[C@@H](OC1CCOCC1)c1ccc(Nc2ccc(-c3cnc4cc(F)ccn34)c3c2C(=O)NC3)nc1CN(C)C` (single isomer, unassigned) [Compound I-24] was at most 100 nM; that for `C[C@@H](OC[C@H]1COCCO1)c1ccc(Nc2ccc(-c3cnc4cc(F)ccn34)c3c2C(=O)NC3)nc1CN(C)C` (single isomer, unassigned) [Compound I-34] was at most 100 nM; that for `CN(C)Cc1cc(C2CCOCC2)cc(Nc2ccc(-c3cnc4cc(F)ccn34)c3c2C(=O)NC3)n1` [Compound I-39, 7-((6-((dimethylamino)methyl)-4-(tetrahydro-2H-pyran-4-yl)pyridin-2-yl)amino)-4-(7-fluoroimidazo[1,2-a]pyridin-3-yl)isoindolin-1-one] was at most 100 nM. The value for `CN(C)Cc1nc(Nc2ccc(-c3cnc4cc(F)ccn34)c3c2C(=O)NC3)ccc1C1CCCC1` [Compound I-22] was at most 100 nM; that for `CN(C)Cc1nc(Nc2ccc(-c3cnc4cc(F)ccn34)c3c2C(=O)NC3)ccc1[C@]1(C)CCCO1` (single isomer, unassigned) [Compound I-6] was at most 100 nM.
